For one experiment, the target named is human recombinant BACE1 (Homo sapiens (Human), UniProt P56817). Description: In vitro enzymatic BACE1 FRET assay. The experiment is classed as biochemical. The settings on record: read-out: IC50 IP (μM) BACE1 enzyme. The method, boiled down:
(§1)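 FRET cleavage assay using Ni-NTA-purified recombinant protease and 50 nM quenched peptide substrate, 1 h. Stopped by neutralising with Tris; fluorescence at 488/590 nm.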

The subject of experiment [1] is Aβ40 in conditioned medium of cells stably expressing Amyloid Precursor Protein (APP). As to the kind of experiment: In vitro BACE-1 cell-based assay (Aβ40 sandwich ELISA). To be noted: read-out: IC50 IP (μM) BACE1 cell. The method, boiled down:
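APP-stable cells, pre-cultured 24 h at 37° C in DMEM/10% FBS, were treated 24 h with compound in a 10-point series starting at 100 μM or 10 μM (0.1% DMSO final). Secreted Aβ40 in conditioned medium was measured by pAb40/biotin-6E10 sandwich ELISA with Europium time-resolved fluorescence; IC50 from percent inhibition versus concentration.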

Another experiment concerns the target Recombinant Cat D (Homo sapiens (Human), UniProt P07339). As to the kind of experiment: In vitro enzymatic Cathepsin D (Cat D) FRET assay. The settings on record: read-out: IC50 IP (μM) CatD. The experiment is classed as biochemical. The method, boiled down:
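Cleavage of a 20 nM fluorophore/quencher peptide by CHO-expressed recombinant Cat D proceeded for one hour at pH 3.5 (0.05 M citrate, 5 mM CHAPS, 10% DMSO final). Tris addition neutralized the pH to end the reaction. Fluorescence was then measured (ex 500 nm/em 580 nm).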

The next experiment deals with Aβ 40 in rat CSF. Description: In vivo inhibition of beta-secretase: Aβ40 reduction in rat CSF. To be noted: after 4 h. The text has this: (§2) In Vivo Inhibition of Beta-Secretase
Several animal models, including mouse, rat, dog, and monkey, may be used to screen for inhibition of beta-secretase activity in vivo following administration of a test compound sample. Animals used in this invention can be wild type, transgenic, or gene knockout animals. For example, the Tg2576 mouse model, prepared and conducted as described in Hsiao et al., 1996, Science 274, 99-102, and other non-transgenic or gene knockout animals are useful to analyze in vivo inhibition of Amyloid beta peptide (Abeta) production in the presence of inhibitory test compounds. Generally, 2 to 18 month old Tg2576 mice, gene knockout mice or non-transgenic animals are administered test compounds formulated in vehicles, such as cyclodextran, phosphate buffers, hydroxypropyl methylcellulose or other suitable vehicles. One to twenty-four hours following the administration of compound, animals are sacrificed, and brains as well as cerebrospinal fluid (CSF) and plasma are removed for analysis of A-beta levels and drug or test compound concentrations (Dovey et al., 2001, Journal of Neurochemistry, 76,173-181) Beginning at time 0, animals are administered by oral gavage, or other means of delivery such as intravenous injection, an inhibitory test compound of up to 100 mg/kg in a standard, conventional formulation, such as 2% hydroxypropyl methylcellulose, 1% Tween80. A separate group of animals receive 2% hydroxypropyl methylcellulose, 1% Tween80 alone, containing no test compound, and serve as a vehicle-control group. At the end of the test period, animals are sacrificed and brain tissues, plasma or cerebrospinal fluid are collected. […] Homogenates are centrifuged at 355,000 g, 4° C. for 30 minutes. CSF or brain supernatants are then analyzed for the presence of A-beta peptide by specific sandwich ELISA assays based on ECL (Electrochemiluminescence) technology. For example, rat Abeta40 is measured using biotinylated-4G8 (Signet) as a capture antibody and Fab40 (an in-house antibody specific to the C-terminal of Abeta40) as a detection antibody. For example, 4 hours after administration of 30 mg/kg oral dose of the test compound in 2% hydroxypropyl methylcellulose, 1% Tween80 (pH2.2) to 200 g male Sprague Dawley rats, amyloid beta peptide levels are measured for reduction by X % and Y % in cerebrospinal fluid and brain, respectively, when compared to the levels measured in the vehicle-treated or control mice.
(§3) Actual vehicles used: Oral: 2% HPMC, 1% Tween80, pH 2.2
The compounds of the invention may be shown to reduce the formation and/or deposition of amyloid beta peptide in the cerebrospinal fluid (CSF) as well as in the brain of a mouse or rat at either 3 mpk, 10 mpk or 30 mpk (mpk=mg compound per kg weight of the animal) dosing concentrations after 4 h.

The test system of a further experiment is Aβ 40 in rat brain. As to the kind of experiment: In vivo inhibition of beta-secretase: Aβ40 reduction in rat brain. To be noted: after 4 h.
From the text: as §2
Several animal models, including mouse, rat, dog, and monkey, may be used to screen for inhibition of beta-secretase activity in vivo following administration of a test compound sample. Animals used in this invention can be wild type, transgenic, or gene knockout animals. […] One to twenty-four hours following the administration of compound, animals are sacrificed, and brains as well as cerebrospinal fluid (CSF) and plasma are removed for analysis of A-beta levels and drug or test compound concentrations (Dovey et al., 2001, Journal of Neurochemistry, 76,173-181) Beginning at time 0, animals are administered by oral gavage, or other means of delivery such as intravenous injection, an inhibitory test compound of up to 100 mg/kg in a standard, conventional formulation, such as 2% hydroxypropyl methylcellulose, 1% Tween80. A separate group of animals receive 2% hydroxypropyl methylcellulose, 1% Tween80 alone, containing no test compound, and serve as a vehicle-control group. At the end of the test period, animals are sacrificed and brain tissues, plasma or cerebrospinal fluid are collected. […] Homogenates are centrifuged at 355,000 g, 4° C. for 30 minutes. CSF or brain supernatants are then analyzed for the presence of A-beta peptide by specific sandwich ELISA assays based on ECL (Electrochemiluminescence) technology. For example, rat Abeta40 is measured using biotinylated-4G8 (Signet) as a capture antibody and Fab40 (an in-house antibody specific to the C-terminal of Abeta40) as a detection antibody.
as §3

The next experiment addresses human recombinant BACE2 (Homo sapiens (Human), UniProt Q9Y5Z0). Description: In vitro enzymatic BACE2 FRET assay. The experiment is classed as biochemical. To be noted: read-out: IC50 IP (μM) BACE2 enzyme. The gist of the method: as §1

Molecules are shown by their SMILES. Read-outs that look alike come from different tables or passages of the source.

Broadly, the IC50 is the concentration that inhibits the measured activity by half.

Recombinant Cat D, sequence (P07339 65-412): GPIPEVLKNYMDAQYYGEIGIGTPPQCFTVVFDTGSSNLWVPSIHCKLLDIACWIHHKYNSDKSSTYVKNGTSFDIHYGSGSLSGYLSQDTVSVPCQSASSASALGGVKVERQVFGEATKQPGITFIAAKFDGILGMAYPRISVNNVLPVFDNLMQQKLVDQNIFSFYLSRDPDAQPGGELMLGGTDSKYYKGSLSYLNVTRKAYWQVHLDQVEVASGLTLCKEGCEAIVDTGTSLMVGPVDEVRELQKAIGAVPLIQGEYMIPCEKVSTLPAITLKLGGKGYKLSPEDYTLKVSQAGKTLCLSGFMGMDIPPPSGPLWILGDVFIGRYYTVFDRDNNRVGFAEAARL
human recombinant BACE1, sequence (P56817 46-501): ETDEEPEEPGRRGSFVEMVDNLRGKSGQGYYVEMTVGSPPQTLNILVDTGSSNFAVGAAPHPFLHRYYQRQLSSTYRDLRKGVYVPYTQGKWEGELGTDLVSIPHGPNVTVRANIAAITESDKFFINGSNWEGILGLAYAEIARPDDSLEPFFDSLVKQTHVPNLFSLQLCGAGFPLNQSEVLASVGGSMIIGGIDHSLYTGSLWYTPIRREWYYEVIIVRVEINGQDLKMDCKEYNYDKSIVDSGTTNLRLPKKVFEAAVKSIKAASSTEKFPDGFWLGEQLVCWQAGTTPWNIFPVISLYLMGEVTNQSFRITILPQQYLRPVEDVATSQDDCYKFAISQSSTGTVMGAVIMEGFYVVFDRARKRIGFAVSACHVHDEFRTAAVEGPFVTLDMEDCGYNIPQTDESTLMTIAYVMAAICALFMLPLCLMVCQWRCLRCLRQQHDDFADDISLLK
human recombinant BACE2, sequence (Q9Y5Z0 63-518): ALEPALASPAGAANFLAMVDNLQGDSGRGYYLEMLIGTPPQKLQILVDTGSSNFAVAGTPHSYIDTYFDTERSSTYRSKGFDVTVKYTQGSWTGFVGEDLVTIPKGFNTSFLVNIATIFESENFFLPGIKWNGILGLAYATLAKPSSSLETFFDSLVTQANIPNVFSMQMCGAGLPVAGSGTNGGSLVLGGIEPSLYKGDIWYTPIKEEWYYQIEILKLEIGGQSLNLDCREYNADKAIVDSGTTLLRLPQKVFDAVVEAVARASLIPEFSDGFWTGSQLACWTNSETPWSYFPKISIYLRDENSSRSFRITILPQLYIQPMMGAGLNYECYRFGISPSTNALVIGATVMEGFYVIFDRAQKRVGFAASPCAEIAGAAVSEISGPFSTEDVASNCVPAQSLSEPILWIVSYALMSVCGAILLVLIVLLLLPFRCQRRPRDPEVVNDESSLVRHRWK

In the case of `COc1cnc(C(=O)Nc2ccc(F)c([C@@]3(CF)N=C(N)S[C@H]4C[C@H]43)c2)cn1` [Example 4, N-(3-((1S,5S,6S)-3-amino-5-(fluoromethyl)-2-thia-4-azabicyclo[4.1.0]hept-3-en-5-yl)-4-fluorophenyl)-5-methoxy-2-pyrazinecarboxamide], the concentration for half-maximal inhibition (IC50) at human recombinant BACE1 (BACE1 FRET enzyme assay) came out at 0.0696 µM; in experiment [1] (BACE1 cell-based assay), 0.0164 µM; on Recombinant Cat D (Cathepsin D FRET enzyme assay), 1840 µM. Moreover, in the experiment on Aβ 40 in rat CSF, the “% Aβ 40 reduction in rat CSF at 10 mpk” value is given as 40%. Moreover, the “% Aβ 40 reduction in rat brain at 10 mpk” value in the experiment on Aβ 40 in rat brain was found to be 18%.
Take `C[C@]1(c2cc(NC(=O)c3ccc(Cl)cn3)cc(F)c2F)N=C(N)S[C@H]2C[C@H]21` [Example 6, N-(3-((1S,5S,6S)-3-amino-5-methyl-2-thia-4-azabicyclo[4.1.0]hept-3-en-5-yl)-4,5-difluorophenyl)-5-chloro-2-pyridinec arboxamide]: the “% Aβ 40 reduction in rat CSF at 10 mpk” value with Aβ 40 in rat CSF was determined as 78%.
On the same count and under the same terms, for `C[C@]1(c2cc(NC(=O)c3ccc(Cl)cn3)cc(F)c2F)N=C(N)S[C@@]2(CF)C[C@H]21` [Example 12, N-(3-((1S,5S,6S)-3-amino-1-(fluoromethyl)-5-methyl-2-thia-4-azabicyclo[4.1.0]hept-3-en-5-yl)-4,5-difluorophenyl)-5-chloropicolinamide] the value was 75%.
On to `NC1=N[C@](CF)(c2cc(Nc3ncnc4cc(Cl)cnc34)ccc2F)[C@H]2C[C@@H]2S1` [Example 39, N-(3-((1S,5S,6S)-3-amino-5-(fluoromethyl)-2-thia-4-azabicyclo[4.1.0]hept-3-en-5-yl)-4-fluorophenyl)-7-chloropyrido[3,2-d]pyrimidin-amine], for which the IC50 in experiment [1] (BACE1 cell-based assay) was 0.024 µM. In the experiment on Aβ 40 in rat CSF, the “% Aβ 40 reduction in rat CSF at 10 mpk” value was 50%. Also, in the experiment with Aβ 40 in rat brain, the “% Aβ 40 reduction in rat brain at 10 mpk” value was 23%.
With `C#CCOc1cnc(C(=O)Nc2cc(F)c(F)c([C@@]3(C)N=C(N)S[C@@]4(COC)C[C@H]43)c2)cn1` [Example 72, N-(3-((1S,5S,6S)-3-amino-1-(methoxymethyl)-5-methyl-2-thia-4-azabicyclo[4.1.0]hept-3-en-5-yl)-4,5-difluorophenyl)-5-(2-propyn-1-yloxy)-2-pyrazinecarboxamide], the IC50 in experiment [1] (BACE1 cell-based assay) amounted to 0.00082 µM. Also, in the experiment with Aβ 40 in rat CSF, the “% Aβ 40 reduction in rat CSF at 10 mpk” value turned out to be 85%.
Turning to `C#CCOc1cnc(C(=O)Nc2cc(F)c(F)c([C@@]3(C)N=C(N)S[C@@]4(C(F)F)C[C@@H]34)c2)cn1` [Example 807, N-(3-((1S,5S,6S)-3-amino-1-(difluoromethyl)-5-methyl-2-thia-4-azabicyclo[4.1.0]hept-3-en-5-yl)-4,5-difluorophenyl)-5-(2-propyn-1-yloxy)-2-pyrazinecarboxamide], the “% Aβ 40 reduction in rat CSF (3 mpk)” value in the experiment with Aβ 40 in rat CSF is 80 (3 mpk) %.
`C#CCOc1cnc(C(=O)Nc2cc(F)c(F)c([C@@]3(C)N=C(N)S[C@@]4(CF)C[C@H]43)c2)cn1` [Example 810, N-(3-((1S,5S,6S)-3-amino-1-(fluoromethyl)-5-methyl-2-thia-4-azabicyclo[4.1.0]hept-3-en-5-yl)-4,5-difluorophenyl)-5-(prop-2-yn-1-yloxy)pyrazine-2-carboxamide]: in the experiment on Aβ 40 in rat CSF, the “% Aβ 40 reduction in rat CSF (3 mpk)” value is 79 (3 mpk) %. Moreover, in the experiment with Aβ 40 in rat brain, the “% Aβ 40 reduction in rat brain (3 mpk)” value is recorded as 74 (3 mpk) %.
With `COC[C@]12C[C@H]1[C@@](C)(c1cc(NC(=O)c3cnc(OCC(F)(F)F)cn3)cc(F)c1F)N=C(N)S2` [Example 815, N-(3-((1S,5S,6S)-3-amino-1-(methoxymethyl)-5-methyl-2-thia-4-azabicyclo[4.1.0]hept-3-en-5-yl)-4,5-difluorophenyl)-5-(2,2,2-trifluoroethoxy)-2-pyrazinecarboxamide], the “% Aβ 40 reduction in rat CSF at 10 mpk” value with Aβ 40 in rat CSF is on record as 50%.
Turning to `[2H]C([2H])([2H])OC[C@]12C[C@H]1[C@@](C)(c1cc(NC(=O)c3cnc(OCC#C)cn3)cc(F)c1F)N=C(N)S2` [Example 969, N-(3-((1S,5S,6S)-3-amino-5-methyl-1-(((trideuterium)methyloxy)methyl)-2-thia-4-azabicyclo[4.1.0]hept-3-en-5-yl)-4,5-difluorophenyl)-5-(2-propyn-1-yloxy)-2-pyrazinecarboxamide], the IC50 in experiment [1] is 0.000687 µM. In addition, the “% Aβ 40 reduction in rat CSF (3 mpk)” value with Aβ 40 in rat CSF is on record as 79 (3 mpk) %. Also, the “% Aβ 40 reduction in rat brain (3 mpk)” value in the experiment on Aβ 40 in rat brain is on record as 79 (3 mpk) %.
On to `Cc1cc(NC(=O)c2cnc(OCC(F)(F)F)cn2)cc([C@@]2(C)N=C(N)S[C@@]3(C(F)F)C[C@@H]23)c1F` [Example 1073, N-(3-((1S,5S,6S)-3-amino-1-(difluoromethyl)-5-methyl-2-thia-4-azabicyclo[4.1.0]hept-3-en-5-yl)-4-fluoro-5-methylphenyl)-5-(2,2,2-trifluoroethoxy)pyrazine-2-carboxamide], for which the concentration for half-maximal inhibition (IC50) on human recombinant BACE1 was 0.000842 µM; on human recombinant BACE2 it was 0.0515 µM; in experiment [1], 0.00323 µM; at Recombinant Cat D, 1300 µM.
On the same counts, the results for `Cc1cc(NC(=O)c2cnc(OCc3ncco3)cn2)cc([C@@]2(C)N=C(N)S[C@@]3(C(F)F)C[C@@H]23)c1F` [Example 1074, N-(3-((1S,5S,6S)-3-amino-1-(difluoromethyl)-5-methyl-2-thia-4-azabicyclo[4.1.0]hept-3-en-5-yl)-4-fluoro-5-methylphenyl)-5-(oxazol-2-ylmethoxy)pyrazine-2-carboxamide] are 0.00057 µM, 0.0167 µM, 0.000489 µM and 1330 µM.
On the same counts, the results for `Cc1noc(COc2cnc(C(=O)Nc3cc(C)c(F)c([C@@]4(C)N=C(N)S[C@@]5(C(F)F)C[C@@H]45)c3)cn2)n1` [Example 1075, N-(3-((1S,5S,6S)-3-amino-1-(difluoromethyl)-5-methyl-2-thia-4-azabicyclo[4.1.0]hept-3-en-5-yl)-4-fluoro-5-methylphenyl)-5-((3-methyl-1,2,4-oxadiazol-5-yl)methoxy)pyrazine-2-carboxamide] are 0.00152 µM, 0.198 µM, 0.00153 µM and 1250 µM.

Values taken from patent US20160046618A1, “Cyclopropyl Fused Thiazin-2-Amine Compounds as Beta-Secretase Inhibitors and Methods of Use” (AMGEN INC., priority 2014, published 2016).
